The values that follow come from patent US20210220408A1, “ARYL HYDROCARBON RECEPTOR ANTAGONISTS AND METHODS OF USE” (Magenta Therapeutics Inc., priority 2018, published 2021).

The target in experiment [1] is T1, aryl hydrocarbon receptor (AHR) (Homo sapiens, UniProt P35869).
T1 sequence (P35869 11-848): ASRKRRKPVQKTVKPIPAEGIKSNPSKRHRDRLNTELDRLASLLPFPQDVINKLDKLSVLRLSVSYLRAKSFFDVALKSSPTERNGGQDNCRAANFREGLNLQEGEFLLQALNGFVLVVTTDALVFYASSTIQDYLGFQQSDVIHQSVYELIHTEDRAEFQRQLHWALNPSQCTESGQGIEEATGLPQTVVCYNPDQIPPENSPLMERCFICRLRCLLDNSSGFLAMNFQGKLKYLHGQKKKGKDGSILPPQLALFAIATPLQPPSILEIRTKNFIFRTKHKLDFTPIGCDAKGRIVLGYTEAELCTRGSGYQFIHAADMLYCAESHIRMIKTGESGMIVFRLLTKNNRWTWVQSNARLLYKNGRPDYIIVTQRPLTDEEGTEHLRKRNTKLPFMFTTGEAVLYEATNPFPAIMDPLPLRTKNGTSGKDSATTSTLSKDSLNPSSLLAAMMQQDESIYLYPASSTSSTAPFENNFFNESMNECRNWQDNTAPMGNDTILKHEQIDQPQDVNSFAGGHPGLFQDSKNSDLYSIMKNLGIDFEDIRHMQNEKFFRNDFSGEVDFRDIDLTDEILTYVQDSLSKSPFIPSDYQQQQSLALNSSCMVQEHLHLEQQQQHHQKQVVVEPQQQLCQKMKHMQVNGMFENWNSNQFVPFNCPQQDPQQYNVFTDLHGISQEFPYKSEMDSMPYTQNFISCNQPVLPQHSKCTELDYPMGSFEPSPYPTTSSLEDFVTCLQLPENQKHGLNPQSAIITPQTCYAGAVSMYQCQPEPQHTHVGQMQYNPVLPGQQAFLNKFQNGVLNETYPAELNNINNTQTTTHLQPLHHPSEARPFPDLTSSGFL
The experiment is described as follows: DRE-Luciferase reporter high-throughput screen (AHR antagonist, VAF347-activated).
Excerpt: HepG2 hepatocellular carcinoma cells were transfected with a dioxin-response element (DRE) Firefly luciferase reporter construct. Luciferase transcription was activated with the aryl hydrocarbon receptor (AHR) agonist, VAF347. Addition of an AHR antagonist results in inhibition of the luciferase transcription and a loss of signal in the assay.
HepG2, a hepatocellular carcinoma cell line, was transfected with the dioxin-response element Firefly luciferase reporter construct using the TransIT-transfection system. Prior to transfection, HepG2 cells (Sigma) were cultured at 90% confluency in Eagle's Modified Essential Medium (Sigma)+2 mM Glutamine (Sigma), +1^% Non Essential Amino Acids (Sigma)+10% Fetal Bovine Serum (Hyclone) and harvested and counted (Biorad TC20 cell counter). OptilMEM serum-free media and TransIT (Mirus) were mixed for transfection in 150 mm dishes by adding 240 μL Transit to 3.0 mL OptiMEM, vortexing briefly to mix, and incubating at room temperature for 20 minutes. The DNA mixture was prepared by adding 80 μg plasmid (pGudLuc6.1 plasmid, Garrison et al., (1996) Fundam. Appl. Toxicol., 30, 194-203), inverting to mix, and incubating at room temperature for 30 minutes. 30×10^6 HepG2 cells were seeded in 30 mL media and 3.3 mL of the DNA, OptiMEM, and TransIT mixture was added dropwise to the plate. The plate was mixed by rocking and incubated at 37° C./5% CO2 overnight. The next day, cells were harvested by aspirating media, washing once with sterile phosphate buffered saline (PBS, Gibco), trypsinzing with 0.05% Trypsin (Corning) and harvesting cells with culture medium, and freezing with Cell Freezing Media (Gibco) at 5 50×10^6 cells/vial in 1 mL/vial.
Transiently-transfected frozen HepG2 cells with DRE-Luciferase, were thawed in a 37° C. water bath and resuspended in complete media. 4 μL cells at 15,000 cells per well was transferred into the wells of a 1536-well Alphaplate assay plate (PerkinElmer) using TEMPEST liquid dispenser. The plate was centrifuged at 1000 rpm for 1 minute. 30 nL of the controls (1 μM (S)-2-(6-((2-(1H-indol-3-yl)ethyl)amino)-2-(5-fluoropyridin-3-yl)-9H-purin-9-yl)propan-1-ol or 100% DMSO) were transferred to the assay plate using the Pin Tool on BRAVO. 1 μL of VAF347 (15 nM final concentration) in complete media was added to the wells using TEMPEST. The plate was centrifuged at 1000 rpm for 1 minute and incubated at 37° C./5% CO2 overnight. After incubation, the plate was removed from the incubator and brought to room temperature. 2 μL of room temperature Steady-Glo luciferase detection reagent (Promega) was added to the wells with TEMPEST. The plate was centrifuged at 2000 rpm for 1 minute, sealed with clear plastic seal and kept at room temperature for 15 minutes prior to measuring luminescence on ENVISION.
Approximately 166,000 compounds were screened in 132 1536-well plates in the luciferase reporter gene assay at a final concentration of 12 μM. […] Each compound was tested at 0.1 μM, 1.0 μM, and 10 μM in the DRE luciferase assay and Cell Titer Glo cytotoxicity assay (Promega). […] 512 compounds were selected for 10-point dose-response in the AHR luciferase reporter assay and the Cell Titer Glo cytotoxicity assay.

The test system of experiment [2] is mobilized peripheral blood CD34+ cells. The experiment is described as follows: CD34+ expansion assay. Type of experiment: cell-based. Conditions: Homo sapiens; read-out: CD34 Frequency EC50. How it is done: Approximately 3,000 mobilized peripheral blood CD34+ cells were plated per well in 384-well plate at a final volume of 45 μL in HSC growth media (SFEM supplemented with Pen/Strep, 50 ng/mL FLT3L, TPO, SCF and IL-6). Serial dilutions were made in HSC growth media with a top final concentration of 10 μM. 5 μL 10× stock was added to each well. The plate was gently tapped on all sides and incubated for 7 days at 37° C./5% CO2. On day 7, the media was aspirated on a Biotek plate washer and 30 μL staining solution was added to the cells with antibodies against CD34-PE, CD90-APC, CD45RA-PE-CF594 in PBS. Cells were washed once in PBS and resuspended in 80 μL for final volume. 40 μL was acquired by flow cytometry (BD Celesta).

The term IC50 denotes the midpoint of a concentration-inhibition curve. A lower IC50 goes with greater potency. As usually defined, the EC50 is the midpoint of the concentration-response curve. As to `CCOC(=O)N1CCN(c2nc(CC)nc3sc(C)cc23)CC1` [compound 75], the IC50 in experiment [1] was in the range of 0.2 to 0.5 µM. Further, the concentration for a half-maximal effect (EC50) in experiment [2] is 1 to 5 µM.

Turning to `Cc1noc(C)c1C(=O)Nc1ccc(-c2nc3ccccc3o2)cc1` [compound 25], the IC50 in experiment [1] lay in the range of 0.2 to 0.5 µM. In experiment [2], the EC50 was in the range of 0.5 to 1 µM. The matching figures for `Cc1ccc(-c2nc(-c3cc(C)on3)no2)cc1` [compound 122]: 0.5 to 1 µM and 1 to 5 µM. Regarding `Cc1ccc2nc(-c3ccc(-c4ccccn4)s3)cn2c1` [compound 101], the IC50 in experiment [1] is 0.5 to 1 µM. In addition, the EC50 in experiment [2] fell in the range of 0.5 to 1 µM. In experiment [1], `COc1ccc(-c2nnc(Nc3ccccc3O)c3ccccc23)cc1` [compound 130] came in with an IC50 of 0.5 to 1 µM. Besides, in experiment [2], the EC50 lay in the range of 1 to 5 µM.

In turn, `C/C(=N\Nc1ncc(Br)cn1)c1cccc([N+](=O)[O-])c1` [compound 112] returned an IC50 in experiment [1] of 0.5 to 1 µM. Further, the EC50 in experiment [2] was less than 0.5 µM. For `Cc1c(Cl)c(=O)oc2cc(OCc3ccc(Cl)cc3)ccc12` [compound 137] the same measures were 0.5 to 1 µM and no less than 5 µM.

`COc1ccc(NC(=O)CNc2ccc(C(F)(F)F)cc2)cc1Cl` [compound 127] gave an IC50 in experiment [1] of 0.5 to 1 µM. In experiment [2], the EC50 was in the range of 1 to 5 µM. The matching figures for `O=c1[nH]c(NC2CCCC2)nc2nccc(-c3cccs3)c12` [compound 129]: 0.2 to 0.5 µM and 1 to 5 µM.

In the case of `CC(C)(C)c1ccc(O)c(NC(=O)c2cnc3ccccn3c2=O)c1` [compound 27], in experiment [1], the IC50 fell in the range of 0.5 to 1 µM. In experiment [2], the EC50 was 1 to 5 µM. The matching figures for `Nc1c(-c2nc(-c3ccccc3)cs2)nnn1-c1ccc(F)cc1` [compound 53]: 0.5 to 1 µM and 0.5 to 1 µM. The matching figures for `Fc1ccc(-c2cc(-c3ccccc3)nc(-n3cccn3)n2)cc1` [compound 82]: less than 0.2 µM and 0.5 to 1 µM.

`Cc1nn2cc(-c3ccc(-c4ccccc4)cc3)nc2s1` [compound 69]: the IC50 in experiment [1] lay within 0.2 to 0.5 µM. Further, the EC50 in experiment [2] lay within 0.5 to 1 µM. `Cc1ccccc1CS(=O)(=O)N1CCc2ccccc2C1` [compound 131]: in experiment [1], the IC50 was 0.5 to 1 µM. Further, in experiment [2], the EC50 was 1 to 5 µM. For `Cc1ccc(N/N=C/c2ccc(-n3ccnc3)cc2)cc1Cl` [compound 98] the same measures were 0.5 to 1 µM and 1 to 5 µM. `Cc1ccc2cc(C(=O)N3CCN(S(=O)(=O)c4cccs4)CC3)[nH]c2c1` [compound 78] returned an IC50 in experiment [1] of 0.5 to 1 µM. For the same molecule, the EC50 in experiment [2] is no less than 5 µM.

In the case of `COc1ccc(NC(=O)c2nnn(-c3cc(C)cc(C)c3)c2C)c(OC)c1` [compound 22], in experiment [1], the IC50 lay in the range of 0.5 to 1 µM. Moreover, the EC50 in experiment [2] fell in the range of 0.5 to 1 µM. `COc1ccc(-c2ccc3c(N)c(C(=O)NC4CC4)sc3n2)cc1` [compound 136] returned an IC50 in experiment [1] of 0.5 to 1 µM. In experiment [2], the EC50 was no less than 5 µM. For `Cc1ccc2nc3sc(C(=O)Nc4cccc(C(F)(F)F)c4)cc3c(=O)n2c1` [compound 15] the same measures were less than 0.2 µM and less than 0.5 µM.

In the case of `Cc1ccc(Nc2ccc(NC(=O)c3ccc(-c4ccccc4)cc3)cc2)nn1` [compound 5], the IC50 in experiment [1] lay within 0.5 to 1 µM. Also, the EC50 in experiment [2] was in the range of 1 to 5 µM.

With `Cc1ccn2c(-c3csc(Nc4ccccn4)n3)c(C)nc2c1` [compound 60], in experiment [1], the half-maximal inhibitory concentration (IC50) fell in the range of 0.5 to 1 µM. The EC50 in experiment [2] lay in the range of 1 to 5 µM.

The molecule `Cn1nc(C(C)(C)C)cc1-c1nn2c(-c3cccs3)nnc2s1` [compound 73] returned an IC50 in experiment [1] of 0.5 to 1 µM. Also, in experiment [2], the EC50 is 1 to 5 µM. Consider `O=C(Nc1ccccc1Cl)c1cnc(-c2noc3ccccc23)s1` [compound 23], for which the IC50 in experiment [1] was in the range of 0.2 to 0.5 µM. In addition, the EC50 in experiment [2] lay within 0.5 to 1 µM. For `Cn1c(SCc2ccc(-c3ccccc3)cc2)nnc1C(F)(F)F` [compound 95] the same measures were 0.5 to 1 µM and 1 to 5 µM. For `Clc1ccc(COc2ccc(-c3ccnc4ccnn34)cc2)cc1` [compound 104] the same measures were 0.5 to 1 µM and 1 to 5 µM.

Take `COc1cc([N+](=O)[O-])ccc1NC(=O)Nc1nc2c(s1)CCCC2` [compound 121]: the IC50 in experiment [1] was 0.5 to 1 µM. In addition, the EC50 in experiment [2] is 1 to 5 µM.

Turning to `Clc1ccc(-c2nc(-c3cnccn3)no2)cc1` [compound 140], the IC50 in experiment [1] was 0.5 to 1 µM. The EC50 in experiment [2] was no less than 5 µM. The matching figures for `COc1ccc(-n2nnc(C(=O)Nc3ccccc3C(F)(F)F)c2N)cc1` [compound 28]: 0.2 to 0.5 µM and 1 to 5 µM. For `CSc1ccccc1C(=O)Nc1ccc2[nH]c(-c3ccc(F)cc3)nc2c1` [compound 13], the IC50 in experiment [1] lay within 0.5 to 1 µM. In experiment [2], the EC50 was less than 0.5 µM. The matching figures for `Cc1cc(-c2nnc3sc(-c4ccc(F)cc4)nn23)[nH]n1` [compound 71]: 0.5 to 1 µM and 0.5 to 1 µM. The matching figures for `CCN(CC)C(=O)c1nc2c(s1)CCN(c1ncccn1)CC2` [compound 133]: 0.5 to 1 µM and 1 to 5 µM. For `O=C(Nc1ccc2ccccc2n1)c1ccccc1Cl` [compound 12] the same measures were 0.5 to 1 µM and 0.5 to 1 µM. In experiment [1], `CCC(=O)Nc1ccc(N2Cc3ccccc3C2=O)cc1` [compound 135] yielded an IC50 of 0.5 to 1 µM. In addition, the EC50 in experiment [2] is 1 to 5 µM. As for `Cc1cccc(-c2nc(-c3c[nH]c(C(=O)N4CCCC4)c3)cs2)c1` [compound 126], the IC50 in experiment [1] was 0.5 to 1 µM. The EC50 in experiment [2] lay within 1 to 5 µM. For `COc1cccc(NC(=O)c2cc3c(=O)n4ccccc4nc3n2C)c1` [compound 18] the same measures were 0.2 to 0.5 µM and less than 0.5 µM. For `Cc1ccc(Nc2cc(-c3ccccc3)nc3ncnn23)cc1` [compound 107] the same measures were 0.5 to 1 µM and 1 to 5 µM. The matching figures for `Cc1nn2c(C)c(C(=O)OC(C)C)nnc2c1-c1ccccc1` [compound 106]: 0.5 to 1 µM and 0.5 to 1 µM. With `N#Cc1ccc(C(=O)Nc2cc(C(F)(F)F)ccc2Cl)c(F)c1` [compound 2], the IC50 in experiment [1] was in the range of 0.2 to 0.5 µM. The EC50 in experiment [2] was 0.5 to 1 µM. As for `CC(C)n1nnc2cc(C(=O)Nc3ccc(Cl)cc3)ccc21` [compound 17], the IC50 in experiment [1] lay within 0.5 to 1 µM. Also, the EC50 in experiment [2] was less than 0.5 µM. The matching figures for `CCCc1cc(C(N)=O)c(NC(=O)COc2ccccc2C)s1` [compound 119]: 0.2 to 0.5 µM and less than 0.5 µM. With `COC(=O)c1sc(NC(=O)c2cc(C)n(C)n2)cc1C` [compound 41], the IC50 in experiment [1] was less than 0.2 µM. The EC50 in experiment [2] was no less than 5 µM. For `COc1ccc(Nc2nc(-c3ccccn3)cs2)cc1` [compound 59], in experiment [1], the IC50 lay within 0.5 to 1 µM. The EC50 in experiment [2] is less than 0.5 µM. For `Cc1cccc(NC(=O)c2cc(-c3ccc(C)cc3O)n[nH]2)c1` [compound 20] the same measures were 0.5 to 1 µM and 0.5 to 1 µM.

`Cc1ccc(C)c(NC(=O)c2nc3c(s2)CCCN3c2ccc(C)nn2)c1` [compound 29] returned an IC50 in experiment [1] of 0.5 to 1 µM. Also, the EC50 in experiment [2] was in the range of 1 to 5 µM.

In experiment [1], `Cc1cnn(-c2nc(-c3ccc(F)cc3)cc(C(F)(F)F)n2)c1` [compound 83] had an IC50 of less than 0.2 µM. For the same molecule, the EC50 in experiment [2] was less than 0.5 µM. For `Cc1ccc(NC(=O)c2sc3nc(N)c(C#N)cc3c2N)cc1Cl` [compound 19] the same measures were less than 0.2 µM and less than 0.5 µM. The matching figures for `Cc1ccc(-c2csc(-c3ccncc3)n2)c(C)c1` [compound 52]: 0.5 to 1 µM and 1 to 5 µM. The matching figures for `O=C(Nc1ccc(N2CCCC2)nc1)c1cc2c(F)cccc2s1` [compound 46]: 0.2 to 0.5 µM and 0.5 to 1 µM. For the molecule `O=[N+]([O-])c1cc(C(F)(F)F)ccc1Oc1ccc(-c2noc(-c3ccccc3F)n2)cc1` [compound 157], the IC50 in experiment [1] lay in the range of 0.5 to 1 µM. On the same count and under the same terms, as for `Cc1ccc(OCc2nc(N)nc(N(C)C)n2)cc1C` [51B], the figure is 1 to 2 µM; as for `COc1ccc(-c2csc(C3=C(N)N(C(C)C)CC3=O)n2)cc1` [compound 55], 0.5 to 1 µM. On the same count and under the same terms, as for `COC(=O)c1ccc(NC(=O)CCn2nc(C)cc2C)s1` [108A], the figure is greater than 2 µM; as for `COc1ccc(OCc2nc(-c3cccc(F)c3)cs2)cc1` [34B], 1 to 2 µM. For the molecule `N#Cc1c(NC(=O)c2cnn3cccnc23)sc2c1CCC2` [32B], the IC50 in experiment [1] fell in the range of 1 to 2 µM. As to `c1cncc(-c2noc(-c3cc(-c4cccs4)[nH]n3)n2)c1` [compound 144], the half-maximal inhibitory concentration (IC50) in experiment [1] was 0.5 to 1 µM.
